Assay results taken from PMC10290335 (Malaria Journal, 2023).
“And” between values parts separate entries of the source, which are not always exact repeats. Identical values can stand only once.

Assays:
[1] = Clinical pharmacokinetics of ivermectin metabolites in blood of healthy volunteers; assay type: in vivo, human; conditions: for Cmax [ratio]: area/internal standard area ratio; for Cmax [ratio] / Half-life / MRTlast / Tmax: whole blood, 12 subjects, mean ± SE; for Cmax [ratio] / Half-life / MRTlast: 12 mg ivermectin, NCA; for Tmax: single oral 12 mg ivermectin
Description: Peripheral venous blood samples were collected before dosing and after 1, 2, 4, 6, 8, 12, 24, 48 and 72 h. Blood samples (50 µL) were extracted by the addition of 150 µL ISTD solution. Samples were mixed for 1 min and centrifuged for 30 min at 3220×g and 15 °C (5810 R centrifuge). Twenty microlitres of supernatant were injected into the LC–MS/MS system to determine the signal intensity of the metabolites.
The different LC–MS/MS settings were applied for the metabolism, pharmacokinetic and metabolite fractioning assays (Additional file 1: Table S1, S2, S3). All analyses were performed on a modular HPLC (Shimadzu, Kyoto, Japan) composed of four pumps (2 × LC-30AD, 2 × LC-20AD), an autosampler (SIL 30-AC MP), a system controller (CBM-20A), two degassing units (DGU-20A5 and DGU-20A3R), a column oven (CTO-20AC), a low-pressure valve (FCV-12AH), and a fraction collector (FRC-12A). The HPLC system was connected to an API 5000 triple quadrupole mass spectrometer (AB Sciex, Ontario, Canada) that was equipped with a turbo electrospray ionization source. The system was operated with Analyst Software 1.7 (AB Sciex) and acquired data were analysed using MultiQuant Software 3.0.3 (AB Sciex).
The integral method “linear up log down” was used on area/internal standard area ratio.
In total, three T0 blank blood samples originating from different PK study participants were used to resuspend the metabolites (Additional file 1: Table S5). The signal intensity was recorded for every metabolite by extracting the 50 µL blood with 150 µL of ISTD solution. The metabolite peak area was determined by LC–MS/MS (see section LC-MS/MS analysis of ivermectin). Moreover, the PK samples of all study participants were equally extracted and analysed to derive the maximal blood level (Cmax) from the blood level-time curves. Afterwards, the mean metabolite peak area of the spiked blank blood was compared with the mean peak area of the Cmax samples (Additional file 1: Table S5). The amount of each metabolite fraction was either reduced or increased to match the peak area of Cmax samples. If the metabolite was not detectable in PK samples, the amount of metabolite was adjusted to the lower limit of detection of the method. In this case, blank blood was spiked with the metabolite fraction to receive a signal intensity that is three times larger than the corresponding noise level.

[2] = system: Anopheles stephensi mosquitoes; assay: Anopheles stephensi membrane feeding screening assay (survival and activity); assay type: in vivo; conditions: for Average activity score: score +2 flying, +1 moving, 0 dead; for activity against An. stephensi: at Cmax levels observed in clinical PK samples; for mean survival of mosquitoes after blood meal: blood meal at Cmax level; for mosquitoes dead after 72 h: blood meal at Cmax level (ivermectin 50 ng/mL), 72 h after treatment
Description: The final DMSO content in blood was 0.1%, which was also the DMSO concentration used for the negative control assays (0.1% DMSO in blank blood). Inclusion of blank fractions as additional negative controls were not considered, because it would not have been feasible to also test the corresponding blank fraction for each metabolite fraction (F1–F9). The blood preparations were rotated at room temperature for 20 min to ensure a uniform metabolite distribution (Rotator Genie, Scientific Industries, Bohemia, USA). The dissolution of the metabolites was confirmed by LC–MS/MS.
Around 50–70 female mosquitoes aged 5–10 days post-emergence were transferred with a mouth aspirator into 20 mL paper cups. A piece of mosquito netting was used to cover the cups. Mosquitoes were starved for 24 h before treatment. The mosquito blood meals were heated in a water bath (SAHARA PPO S5P Heated Bath Circulators, Thermo Fisher Scientific, New Hampshire, USA) for 20 min at 39 °C. A Petri dish (35 mm × 10 mm, BD, Franklin Lakes, USA) was filled with 3 mL of warm blood, sealed with a piece of sealing film (Parafilm®, Huberlab AG, Aesch, Switzerland). The Petri dish was placed upside down on top of the net sealing the paper cup. Female mosquitoes were allowed to feed for 20 min on the blood through the net and the sealing film. The feeding was conducted in a climate chamber (HPP110, Memmert GmbH + Co.KG, Schwabach, Germany) at 27 °C, 70% humidity, and 30% light intensity. After feeding, the cups were put on ice to immobilise the mosquitoes and only the fully engorged mosquitoes were selected for the assay. The mosquitoes were returned to the climate chamber to assess their activity and survival for 3 days.
In the framework of screening assays, mosquitoes were treated with blood containing each metabolite corresponding to Cmax levels observed in PK samples. […] In screening assays, eleven treatments were evaluated with three replicates using three batches of 50–70 mosquitoes.

[3] = system: Anopheles stephensi mosquitoes; assay: 3-day LC50 in Anopheles stephensi (membrane feeding, dilutions); assay type: in vivo; conditions: 72 h after blood feeding; Cmax = maximal peak area in human PK samples
Description: A pilot test was performed to evaluate optimal dilutions matching the expected LC50 values (data not shown).
Student's t test was adopted to test the significance of all mean survival differences between groups, using the R package ggsignif (version 0.6.4). Survival analyses, summary and visualisation of survival analysis were computed using the GNU R packages survival (version 3.1-8) and survminer (version 0.4.9). Replicates were pooled and analysed by the logrank test and the hazard ratio with 95% confidence intervals. LC50 in An. stephensi mosquito were approximated with regression analysis, using GNU R package drc (version 3.0-1) for analysis of dose–response curves (Additional file 1: Fig. S3). The time above LC50 estimation (Additional file 1: Fig. S4) was computed using the GNU R package data.table (version 1.14.6).

[4] = mean of PK subjects 1-12, 50 µL blood

Row | Molecule | Observed Cmax, peak area ([1]; PK subject 1, 50 µL blood) | Observed Cmax, peak area ([1]; PK subject 2, 50 µL blood) | Observed Cmax, peak area ([1]; PK subject 3, 50 µL blood) | Observed Cmax, peak area ([1]; PK subject 4, 50 µL blood) | Observed Cmax, peak area ([1]; PK subject 5, 50 µL blood) | Observed Cmax, peak area ([1]; PK subject 6, 50 µL blood) | Observed Cmax, peak area ([1]; PK subject 7, 50 µL blood) | Observed Cmax, peak area ([1]; PK subject 8, 50 µL blood) | Observed Cmax, peak area ([1]; PK subject 9, 50 µL blood) | Observed Cmax, peak area ([1]; PK subject 10, 50 µL blood) | Observed Cmax, peak area ([1]; PK subject 11, 50 µL blood) | Observed Cmax, peak area ([1]; PK subject 12, 50 µL blood) | Cmax [ratio] [1] | Observed Cmax, peak area [1, 4] | Half-life [1] | Tmax [1] | Average activity score ([2]; 0 h post feeding) | Average activity score ([2]; 24 h post feeding) | Average activity score ([2]; 48 h post feeding) | Average activity score ([2]; 72 h post feeding) | other results
1 | CCC(C)C1OC2(CCC1C)CC1CC(CC=C(C)C(OC3CC(OC)C(OC4CC(OC)C(O)C(C)O4)C(C)O3)C(C)C=CC=C3COC4C(O)C(CO)=CC(C(=O)O1)C34O)O2 (stereo not shown) [M2, 4-hydroxy-H2B1a] | 1.84E+04 counts | 9.36E+03 counts | 1.31E+04 counts | 7.42E+03 counts | 9.63E+03 counts | 2.00E+04 counts | 1.39E+04 counts | 1.25E+04 counts | 1.08E+04 counts | 1.50E+04 counts | 1.64E+04 counts | 1.59E+04 counts | 0.010 ± 0.0010 ratio | 1.35E+04 counts | 31.9 ± 3.4 h | 6.3 ± 0.3 h | 2.00 | 1.20 and 1.20 ± 0.12 | 0.28 and 0.28 ± 0.05 | 0 | MRTlast [1]: 25.8 ± 0.7 h; activity against An. stephensi [2]: active; mean survival of mosquitoes after blood meal [2]: decreased; mosquitoes dead after 72 h [2]: 100%; 3-day LC50 [3]: 0.21 Cmax
2 | 3″-O-desmethyl, 26-hydroxy-H2B1a [M6] | 3.04E+03 counts | 1.56E+03 counts | 2.10E+03 counts | 1.60E+03 counts | 1.15E+03 counts | 3.23E+03 counts | 1.62E+03 counts | 1.82E+03 counts | 1.80E+03 counts | 1.99E+03 counts | 2.12E+03 counts | 2.69E+03 counts | 0.002 ± 0.0002 ratio | 2.06E+03 counts | 32.4 ± 4.1 h | 5.4 ± 0.4 h | 2.00 | 1.89 | 1.91 | 1.42 | MRTlast [1]: 18.3 ± 1.6 h; activity against An. stephensi [2]: minor mosquitocidal properties; mean survival of mosquitoes after blood meal [2]: decreased
3 | 4, 26-dihydroxy- H2B1a [M8] | 7.02E+02 counts | 5.34E+02 counts | 4.91E+02 counts | 3.41E+02 counts | 3.43E+02 counts | 6.41E+02 counts | 3.42E+02 counts | 4.91E+02 counts | 4.29E+02 counts | 4.93E+02 counts | 2.79E+02 counts | 4.55E+02 counts | – | 4.62E+02 counts | – | 5.0 ± 0.3 h | 2.00 | 1.91 | 1.93 | 1.68 | –
4 | 26-hydroxy-H2B1a [M3] | 6.21E+03 counts | 3.33E+03 counts | 4.98E+03 counts | 2.70E+03 counts | 3.63E+03 counts | 5.52E+03 counts | 4.44E+03 counts | 4.04E+03 counts | 3.41E+03 counts | 4.42E+03 counts | 4.22E+03 counts | 4.51E+03 counts | 0.003 ± 0.0003 ratio | 4.28E+03 counts | 15.9 ± 2.8 h | 5.3 ± 0.2 h | 2.00 | 1.82 | 1.86 | 1.67 | MRTlast [1]: 13.9 ± 1.3 h
5 | CCC(C)C1OC2(CCC1C)CC1CC(CC=C(C)C(OC3CC(OC)C(OC4CC(O)C(O)C(C)O4)C(C)O3)C(C)C=CC=C3COC4C(O)C(C)=CC(C(=O)O1)C34O)O2 (stereo not shown) [M1, 3″-O-desmethyl-H2B1a] | 1.95E+04 counts | 1.01E+04 counts | 1.39E+04 counts | 8.48E+03 counts | 9.52E+03 counts | 2.33E+04 counts | 1.56E+04 counts | 1.79E+04 counts | 1.28E+04 counts | 1.60E+04 counts | 2.28E+04 counts | 1.78E+04 counts | 0.011 ± 0.001 ratio | 1.56E+04 counts | 54.2 ± 4.7 h | 7.0 ± 0.5 h | 2.00 | 1.07 and 1.07 ± 0.04 | 0.23 and 0.23 ± 0.02 | 0.01 | MRTlast [1]: 33.8 ± 0.9 h; activity against An. stephensi [2]: active; mean survival of mosquitoes after blood meal [2]: decreased; mosquitoes dead after 72 h [2]: 98.8%; 3-day LC50 [3]: 0.25 Cmax
